Patent US9504676B2, “Molecules inhibiting a metabolic pathway involving the Syk protein tyrosine kinase and method for identifying said molecules” (CENTRE NATIONAL DE LA RECHERCHE SCIENTIFIQUE, priority 2008, dated 2016)

System: Spleen B lymphocyte cells
Assay: In vitro B lymphocyte proliferation induced by anti-IgM
Type: cell-based, BALB/c mice
Procedure: • 1) Chemical products and antibodies. A chemical bank of 3000 molecules (a varied subset) was acquired from ChemBridge, Inc. (San Diego, Calif.). Stocks of solutions of small molecules were prepared at a rate of 10 mM in DMSO (dimethylsulphoxide), except for C-13 (methyl 2-{5-[(3-benzyl-4-oxo-2-thioxo-1,3-thiazolidin-5-ylidene)methyl]-2-furyl}benzoate, ChemBridge ID No. 6197026) prepared in DMF (dimethylformamide). Unless specified otherwise, all the reagents were supplied by Sigma. Dinitrophenyl (DNP) hapten was acquired from Calbiochem. Sepharose GammaBind G and all the secondary antibodies were supplied by GE Health Amersham Biosciences. […] The binding of G4G11 with Syk was assessed by adding the 9E10 monoclonal antibody conjugated with HRP detecting the amino acid sequence EQKLISEEDLN of human c-myc protein located at the C-terminal end of the scFv fragment. To generate Syk mutants, targeted mutagenesis was used on GST:Syk 6-242 protein and the binding of G4G11 with the mutants was assessed in the presence of 5 μM of C-13. • 3) Cells, culture conditions and functional tests. […] The level of β-hexosaminidase released was measured 10 min later and the TNF-α titration was performed by means of a cytotoxicity test on L929 cells as described previously^10, 3 hours after stimulation. […]

## COC(=O)c1ccccc1-c1ccc(/C=C2/SC(=S)N(Cc3ccccc3)C2=O)o1 [Molecule C-13, methyl 2-{5-[(3-benzyl-4-oxo-2-thioxo-1,3-thiazolidin-5-ylidene)methyl]-2-furyl}benzoate]
  BCR-dependent B lymphocyte in vitro proliferation: inhibited in a dose-dependent fashion
